Results from US12065399B2, “Arylsulfonamide derivatives” (Hoffmann-La Roche Inc., priority 2019, dated 2024).
Counter-ions that a name gives are not always drawn.

Each molecule was assayed against human mGlu4 receptor (Homo sapiens (Human), UniProt Q14833) (assay: Intracellular Ca2+ mobilization assay (FLIPR), mGlu4 NAM). Settings: HEK-293 cells stably transfected with human mGlu4; inhibition of L-AP4 (EC80) response; IC50.
Type: cell-based
Protocol: 2.1) Intracellular Ca^2+ Mobilization Assay (FLIPR)
A monoclonal HEK-293 cell line stably transfected with a cDNA encoding for the human mGlu4 receptor was generated. Cells were cultured according to standard protocols (Freshney, 2000) in Dulbecco's Modified Eagle Medium with high glucose supplemented with 1 mM glutamine, 10% (vol/vol) heat-inactivated bovine calf serum, penicillin/streptomycin, 50 μg/ml hygromycin and 15 μg/ml blasticidin (all cell culture reagents and antibiotics from Invitrogen, Basel, Switzerland).
About 24 hrs before an experiment, 5×10^4 cells/well were seeded in poly-D-lysine coated, black/clear-bottomed 96-well plates. The cells were loaded with 2.5 μM Fluo-4AM in loading buffer (1×HBSS, 20 mM HEPES) for 1 hr at 37° C. and washed five times with loading buffer. The cells were transferred into a Functional Drug Screening System 7000 (Hamamatsu, Paris, France), and 11 half logarithmic serial dilutions of test compound at 37° C. were added and the cells were incubated for 10-30 min. with on-line recording of fluorescence. Following this pre-incubation step, the agonist (2S)-2-amino-4-phosphonobutanoic acid (L-AP4) was added to the cells at a concentration corresponding to EC80 with on-line recording of fluorescence; in order to account for day-to-day variations in the responsiveness of cells, the EC80 of L-AP4 was determined immediately ahead of each experiment by recording of a full dose-response curve of L-AP4.
Responses were measured as peak increase in fluorescence minus basal (i.e. fluorescence without addition of L-AP4), normalized to the maximal stimulatory effect obtained with saturating concentrations of L-AP4. Graphs were plotted with the % maximal stimulatory using XLfit, a curve fitting program that iteratively plots the data using Levenburg Marquardt algorithm. The single site competition analysis equation used was y=A+((B-A)/(1+((x/C)D))), where y is the % maximal stimulatory effect, A is the minimum y, B is the maximum y, C is the IC50, x is the log 10 of the concentration of the competing compound and D is the slope of the curve (the Hill Coefficient). From these curves the IC50 (drug concentration at which 50% of the receptor activation achieved from the addition of L-AP4 in the experiment was inhibited), the Hill coefficient as well as the maximal response in % of the maximal stimulatory effect obtained with saturating concentrations of L-AP4 were calculated (see FIG. 1).

Sequence of human mGlu4 receptor (Q14833 33-912): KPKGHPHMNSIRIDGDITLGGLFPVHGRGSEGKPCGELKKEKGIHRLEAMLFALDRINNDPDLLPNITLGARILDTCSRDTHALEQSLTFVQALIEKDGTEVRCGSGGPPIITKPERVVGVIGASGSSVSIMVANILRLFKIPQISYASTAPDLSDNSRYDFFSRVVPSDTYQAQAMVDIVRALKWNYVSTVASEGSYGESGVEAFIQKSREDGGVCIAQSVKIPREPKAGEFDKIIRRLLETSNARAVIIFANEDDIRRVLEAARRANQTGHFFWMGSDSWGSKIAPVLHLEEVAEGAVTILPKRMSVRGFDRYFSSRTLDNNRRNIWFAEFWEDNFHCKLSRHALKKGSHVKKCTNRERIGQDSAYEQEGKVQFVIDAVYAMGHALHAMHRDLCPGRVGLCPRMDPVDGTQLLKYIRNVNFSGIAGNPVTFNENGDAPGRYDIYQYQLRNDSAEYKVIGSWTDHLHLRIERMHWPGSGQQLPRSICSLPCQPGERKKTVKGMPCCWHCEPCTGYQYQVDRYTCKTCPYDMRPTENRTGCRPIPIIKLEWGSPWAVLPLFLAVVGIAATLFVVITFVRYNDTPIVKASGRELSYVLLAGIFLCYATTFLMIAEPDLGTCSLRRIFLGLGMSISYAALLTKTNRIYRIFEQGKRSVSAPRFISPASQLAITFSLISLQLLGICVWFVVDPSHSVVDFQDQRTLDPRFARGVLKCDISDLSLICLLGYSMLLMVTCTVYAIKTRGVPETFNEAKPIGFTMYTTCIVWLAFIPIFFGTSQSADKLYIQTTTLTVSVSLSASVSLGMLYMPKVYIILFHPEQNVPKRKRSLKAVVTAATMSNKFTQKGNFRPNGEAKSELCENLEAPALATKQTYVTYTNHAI

Row | SMILES | EC50
1 | COc1ccc(Cl)c(S(=O)(=O)Nc2c(F)cc(C#Cc3ccccc3)cc2F)c1 [Example 18, 2-chloro-N-[2,6-difluoro-4-(2-phenylethynyl)phenyl]-5-methoxy-benzenesulfonamide] | 3940 nM
2 | Cc1ccc(Cl)c(S(=O)(=O)Nc2c(F)cc(C#Cc3ccccc3)cc2F)c1 [Example 19, 2-chloro-N-[2,6-difluoro-4-(2-phenylethynyl)phenyl]-5-methyl-benzenesulfonamide] | 1260 nM
3 | Cc1c(Cl)cccc1S(=O)(=O)Nc1c(F)cc(C#Cc2ccccc2)cc1F [Example 20, 3-chloro-N-[2,6-difluoro-4-(2-phenylethynyl)phenyl]-2-methyl-benzenesulfonamide] | 1080 nM
4 | O=S(=O)(Nc1c(F)cc(C#Cc2ccccc2)cc1F)c1cccc(Cl)c1C(F)(F)F [Example 21, 3-chloro-N-[2,6-difluoro-4-(2-phenylethynyl)phenyl]-2-(trifluoromethyl)benzenesulfonamide] | 15300 nM
5 | O=S(=O)(Nc1c(F)cc(C#Cc2ccccc2)cc1F)c1cccnc1Cl [Example 22, 2-chloro-N-[2,6-difluoro-4-(2-phenylethynyl)phenyl]pyridine-3-sulfonamide] | 4330 nM
6 | O=S(=O)(Nc1c(F)cc(C#Cc2ccccc2)cc1F)c1cncc(Cl)c1 [Example 23, 5-chloro-N-[2,6-difluoro-4-(2-phenylethynyl)phenyl]pyridine-3-sulfonamide] | 3110 nM
7 | O=S(=O)(Nc1c(F)cc(C#Cc2ccccc2)cc1F)c1cncc(F)c1 [Example 24, N-[2,6-difluoro-4-(2-phenylethynyl)phenyl]-5-fluoropyridine-3-sulfonamide] | 2050 nM
8 | Cn1nccc1S(=O)(=O)Nc1c(F)cc(C#Cc2ccccc2)cc1F [Example 25, N-[2,6-difluoro-4-(2-phenylethynyl)phenyl]-1-methyl-1H-pyrazole-5-sulfonamide] | 1060 nM
9 | Cn1ccc(S(=O)(=O)Nc2c(F)cc(C#Cc3ccccc3)cc2F)n1 [Example 26, N-[2,6-difluoro-4-(2-phenylethynyl)phenyl]-1-methyl-pyrazole-3-sulfonamide] | 16000 nM
10 | COc1cccc(S(=O)(=O)Nc2c(F)cc(C#Cc3ccccc3)cc2F)c1Cl [Example 27, 2-chloro-N-[2,6-difluoro-4-(2-phenylethynyl)phenyl]-3-methoxy-benzenesulfonamide] | 8430 nM
11 | Cc1c(C(F)(F)F)cccc1S(=O)(=O)Nc1c(F)cc(C#Cc2ccccc2)cc1F [Example 28, N-[2,6-difluoro-4-(2-phenylethynyl)phenyl]-2-methyl-3-(trifluoromethyl)benzenesulfonamide] | 1950 nM
12 | Cc1ncccc1S(=O)(=O)Nc1c(F)cc(C#Cc2ccccc2)cc1F [Example 29, N-[2,6-difluoro-4-(2-phenylethynyl)phenyl]-2-methyl-pyridine-3-sulfonamide] | 2890 nM
13 | Cc1ccc(C)c(S(=O)(=O)Nc2c(F)cc(C#Cc3ccccc3)cc2F)c1 [Example 30, N-[2,6-difluoro-4-(2-phenylethynyl)phenyl]-2,5-dimethyl-benzenesulfonamide] | 1340 nM
14 | Cc1ccncc1S(=O)(=O)Nc1c(F)cc(C#Cc2ccccc2)cc1F [Example 31, N-[2,6-difluoro-4-(2-phenylethynyl)phenyl]-4-methyl-pyridine-3-sulfonamide] | 1400 nM
15 | COCc1c(Cl)cccc1S(=O)(=O)Nc1c(F)cc(C#Cc2ccccc2)cc1F [Example 32, 3-chloro-N-[2,6-difluoro-4-(2-phenylethynyl)phenyl]-2-(methoxymethyl)benzenesulfonamide] | 3880 nM
16 | O=S(=O)(Nc1c(F)cc(C#Cc2ccccc2)cc1F)c1cccc(C(F)(F)F)c1Cl [Example 33, 2-chloro-N-[2,6-difluoro-4-(2-phenylethynyl)phenyl]-3-(trifluoromethyl)benzenesulfonamide] | 2080 nM
17 | O=S(=O)(Nc1c(F)cc(C#Cc2ccccc2)cc1F)c1cccc2ncoc12 [Example 34, N-[2,6-difluoro-4-(2-phenylethynyl)phenyl]-1,3-benzoxazole-7-sulfonamide] | 6560 nM

Row | SMILES | EC50
18 | O=S(=O)(Nc1c(F)cc(C#Cc2ccccc2)cc1F)c1cccc(Cl)c1F [Example 35, 3-chloro-N-[2,6-difluoro-4-(2-phenylethynyl)phenyl]-2-fluoro-benzenesulfonamide] | 1610 nM
19 | Cc1cccc(S(=O)(=O)Nc2c(F)cc(C#Cc3ccccc3)cc2F)c1 [Example 36, N-[2,6-difluoro-4-(2-phenylethynyl)phenyl]-3-methyl-benzenesulfonamide] | 5020 nM
20 | Cc1c(F)cccc1S(=O)(=O)Nc1c(F)cc(C#Cc2ccccc2)cc1F [Example 37, N-[2,6-difluoro-4-(2-phenylethynyl)phenyl]-3-fluoro-2-methyl-benzenesulfonamide] | 1050 nM
21 | Cc1cc(F)c(C)c(S(=O)(=O)Nc2c(F)cc(C#Cc3cncc(F)c3)cc2F)c1 [Example 38, N-[2,6-difluoro-4-[2-(5-fluoro-3-pyridyl)ethynyl]phenyl]-3-fluoro-2,5-dimethyl-benzenesulfonamide; 2,2,2-trifluoroacetic acid salt] | 434 nM
22 | Cn1nccc1S(=O)(=O)Nc1c(F)cc(C#Cc2cncc(F)c2)cc1F [Example 39, N-[2,6-difluoro-4-[2-(5-fluoro-3-pyridyl)ethynyl]phenyl]-2-methyl-pyrazole-3-sulfonamide; 2,2,2-trifluoroacetic acid salt] | 10500 nM
23 | Cc1cc(F)c(C)c(S(=O)(=O)Nc2c(F)cc(C#Cc3ccccc3)cc2F)c1 [Example 40, N-[2,6-difluoro-4-(2-phenylethynyl)phenyl]-3-fluoro-2,5-dimethyl-benzenesulfonamide] | 808 nM
24 | Cc1nn(C)cc1S(=O)(=O)Nc1c(F)cc(C#Cc2ccccc2)cc1F [Example 41, N-[2,6-difluoro-4-(2-phenylethynyl)phenyl]-1,3-dimethyl-pyrazole-4-sulfonamide; 2,2,2-trifluoroacetic acid salt] | 9350 nM
25 | COc1cccc(C#Cc2cc(F)c(NS(=O)(=O)c3cccc(Cl)c3C)c(F)c2)c1 [Example 42, 3-chloro-N-[2,6-difluoro-4-[2-(3-methoxyphenyl)ethynyl]phenyl]-2-methyl-benzenesulfonamide] | 1320 nM
26 | Cc1c(Cl)cccc1S(=O)(=O)Nc1c(F)cc(C#Cc2cccc(F)c2)cc1F [Example 43, 3-chloro-N-[2,6-difluoro-4-[2-(3-fluorophenyl)ethynyl]phenyl]-2-methyl-benzenesulfonamide] | 1270 nM
27 | Cc1cc(F)c(C)c(S(=O)(=O)Nc2c(F)cc(C#Cc3cccc(F)c3)cc2F)c1 [Example 45, N-[2,6-difluoro-4-[2-(3-fluorophenyl)ethynyl]phenyl]-3-fluoro-2,5-dimethyl-benzenesulfonamide] | 1320 nM
28 | COc1c(F)cccc1S(=O)(=O)Nc1c(F)cc(C#Cc2ccccc2)cc1F [Example 46, N-[2,6-difluoro-4-(2-phenylethynyl)phenyl]-3-fluoro-2-methoxy-benzenesulfonamide] | 2110 nM
29 | COc1cccc(C#Cc2cc(F)c(NS(=O)(=O)c3cc(C)cc(F)c3C)c(F)c2)c1 [Example 47, N-[2,6-difluoro-4-[2-(3-methoxyphenyl)ethynyl]phenyl]-3-fluoro-2,5-dimethyl-benzenesulfonamide] | 1050 nM
30 | Cc1cc(F)c(C)c(S(=O)(=O)Nc2c(F)cc(C#Cc3cccc(Cl)c3)cc2F)c1 [Example 48, N-[4-[2-(3-chlorophenyl)ethynyl]-2,6-difluoro-phenyl]-3-fluoro-2,5-dimethyl-benzenesulfonamide] | 1250 nM
31 | Cc1cc(F)c(C)c(S(=O)(=O)Nc2c(F)cc(C#Cc3cc(F)cc(F)c3)cc2F)c1 [Example 49, N-[4-[2-(3,5-difluorophenyl)ethynyl]-2,6-difluoro-phenyl]-3-fluoro-2,5-dimethyl-benzenesulfonamide] | 902 nM
32 | Cc1cc(F)c(C)c(S(=O)(=O)Nc2c(F)cc(C#Cc3cccnc3)cc2F)c1 [Example 50, N-[2,6-difluoro-4-[2-(3-pyridyl)ethynyl]phenyl]-3-fluoro-2,5-dimethyl-benzenesulfonamide] | 274 nM
33 | Cc1cccc(C#Cc2cc(F)c(NS(=O)(=O)c3cc(C)cc(F)c3C)c(F)c2)c1 [Example 51, N-[2,6-difluoro-4-[2-(m-tolyl)ethynyl]phenyl]-3-fluoro-2,5-dimethyl-benzenesulfonamide] | 1410 nM
34 | Cc1c(Cl)cccc1S(=O)(=O)Nc1c(F)cc(C#Cc2cncc(F)c2)cc1F [Example 52, 3-chloro-N-[2,6-difluoro-4-[2-(5-fluoro-3-pyridyl)ethynyl]phenyl]-2-methyl-benzenesulfonamide] | 761 nM
